In patent EP4722207A1, “OXOISOINDOLINYL-SUBSTITUTED TETRAHYDROPYRIMIDINEDIONE DERIVATIVE AND USE THEREOF” (Gluetacs Therapeutics (Shanghai) Co., Ltd., priority 2023, dated 2024):

Experiments:
Format in all cases: cell-based
Conditions in all cases: compounds at 50 nM and 500 nM, 24 hours
[1] = biological target: T1, GSPT1 (Homo sapiens, UniProt P15170+Q96SW2); test: Western-blot assay, substrate protein degradation in hPBMCs: GSPT1
T1 construct: effects of the compounds of the present disclosure on the expression of target proteins in cells; endogenous in cells; host or cells: human PBMCs (hPBMCs)
Procedure: (§1) Conventional Western blot assay was performed to evaluate the effects of the compounds of the present disclosure on the expression of target proteins in cells. • (1) Cell Seeding and Protein Harvesting: Human peripheral blood mononuclear cells (hPBMCs) at a density of 1x10^6 cells/mL were thawed according to the PBMC Recovery Protocol (Milecell Biotechnologies Inc, Shanghai). […] After 24 hours of compounds treatment, cells were harvested and lysed in RIPA protein lysate containing protease inhibitors on ice for 30 min, followed by centrifugation. The supernatant was aspirated as the extracted total cell protein. The protein concentration of the supernatant was determined using the conventional BCA (Bicinchoninic Acid) assay. • (2) To the collected supernatant, 5X SDS sample loading buffer was added, followed by denaturation at 95°C for 5 minutes. The denatured samples were then separated by SDS-PAGE electrophoresis on a polyacrylamide gel. Proteins were transferred to a nitrocellulose membrane (0.45 µm NC membrane), blocked with blocking buffer at room temperature for 1 hour, and subjected to antibody incubation and development procedures according to the antibody manufacturer's instructions (Cell Signaling Technology).
(§2) Half-Maximal Degradation Concentration value (the drug concentration required for degrading proteins by 50%, abbreviated as DC50) reads method: comparing the grayscale values of Western blot bands from drug-treated samples with those from blank DMSO-treated controls, and identifying the drug concentration range at which the grayscale value is half that of the DMSO-treated control bands.
(§3) DC50 values can be calculated using ImageJ software to measure grayscale values of Western blot bands from drug-treated samples. The concentration-response curve is fitted to estimate the drug concentration corresponding to half the grayscale value.
(§4) Target protein remaining (%) refers to the percentage of target protein remaining in cells after treatment with protein degrader compounds.
(§5) Calculation method for target protein remaining (%): Use ImageJ software to measure grayscale values of Western blot bands from drug (protein degrader)-treated samples. The grayscale value of drug-treated bands is divided by that of internal control protein bands, and the resulting quotient is normalized to obtain the relative percentage of remaining target protein after protein degrader treatment. Target protein degradation rate(%) = 1−target protein remaining(%). [formula]

[2] = biological target: T2, IKZF2 (Homo sapiens, UniProt Q96SW2+Q9UKS7); test: Western-blot assay, substrate protein degradation in hPBMCs: IKZF2
T2 construct: effects of the compounds of the present disclosure on the expression of target proteins in cells; endogenous in cells; host or cells: human PBMCs (hPBMCs)
Procedure: as §1, §2, §3, §4, §5

[3] = biological target: T3, IKZF3 (Homo sapiens, UniProt Q96SW2+Q9UKT9); test: Western-blot assay, substrate protein degradation in hPBMCs: IKZF3
T3 construct: effects of the compounds of the present disclosure on the expression of target proteins in cells; endogenous in cells; host or cells: human PBMCs (hPBMCs)
Procedure: as §1, §2, §3, §4, §5

[4] = biological target: T4, CK1α (Homo sapiens, UniProt P48729+Q96SW2); test: Western-blot assay, substrate protein degradation in hPBMCs: CK1α
T4 construct: effects of the compounds of the present disclosure on the expression of target proteins in cells; endogenous in cells; host or cells: human PBMCs (hPBMCs)
Procedure: as §1, §2, §3, §4, §5

[5] = biological target: T5, WEE1 (Homo sapiens, UniProt P30291+Q96SW2); test: Western-blot assay, substrate protein degradation in hPBMCs: WEE1
T5 construct: effects of the compounds of the present disclosure on the expression of target proteins in cells; endogenous in cells; host or cells: human PBMCs (hPBMCs)
Procedure: as §1, §2, §3, §4, §5

[6] = biological target: T6, IKZF1 (Homo sapiens, UniProt Q13422+Q96SW2); test: Western-blot assay, substrate protein degradation in hPBMCs: IKZF1
T6 construct: effects of the compounds of the present disclosure on the expression of target proteins in cells; endogenous in cells; host or cells: human PBMCs (hPBMCs)
Procedure: as §1, §2, §3, §4, §5

T3 sequence (Q9UKT9 whole entry): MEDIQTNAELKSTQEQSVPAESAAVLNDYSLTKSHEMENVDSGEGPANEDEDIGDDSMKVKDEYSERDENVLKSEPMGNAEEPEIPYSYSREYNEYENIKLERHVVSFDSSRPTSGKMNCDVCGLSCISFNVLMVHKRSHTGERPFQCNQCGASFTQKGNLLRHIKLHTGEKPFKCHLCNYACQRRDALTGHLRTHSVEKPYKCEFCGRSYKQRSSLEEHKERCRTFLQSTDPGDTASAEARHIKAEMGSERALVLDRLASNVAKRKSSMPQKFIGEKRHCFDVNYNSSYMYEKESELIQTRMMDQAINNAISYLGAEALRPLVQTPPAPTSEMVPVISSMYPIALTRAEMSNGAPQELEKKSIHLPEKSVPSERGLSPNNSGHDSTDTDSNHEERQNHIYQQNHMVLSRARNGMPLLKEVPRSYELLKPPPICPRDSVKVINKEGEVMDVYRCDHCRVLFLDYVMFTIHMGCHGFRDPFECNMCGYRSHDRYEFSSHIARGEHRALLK
T3 sequence (Q96SW2 whole entry): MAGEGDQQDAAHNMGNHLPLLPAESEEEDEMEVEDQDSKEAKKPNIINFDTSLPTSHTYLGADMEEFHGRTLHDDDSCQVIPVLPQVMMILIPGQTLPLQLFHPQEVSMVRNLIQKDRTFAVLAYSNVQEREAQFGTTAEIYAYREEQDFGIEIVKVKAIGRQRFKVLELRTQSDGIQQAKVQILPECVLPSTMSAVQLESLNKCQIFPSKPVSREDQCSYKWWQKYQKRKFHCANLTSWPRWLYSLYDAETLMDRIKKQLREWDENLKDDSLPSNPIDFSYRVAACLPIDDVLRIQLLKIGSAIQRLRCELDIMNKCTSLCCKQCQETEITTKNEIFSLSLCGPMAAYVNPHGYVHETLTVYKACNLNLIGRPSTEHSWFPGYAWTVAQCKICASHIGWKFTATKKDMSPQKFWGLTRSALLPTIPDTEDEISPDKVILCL
T3 sequence (Q16531 whole entry partner): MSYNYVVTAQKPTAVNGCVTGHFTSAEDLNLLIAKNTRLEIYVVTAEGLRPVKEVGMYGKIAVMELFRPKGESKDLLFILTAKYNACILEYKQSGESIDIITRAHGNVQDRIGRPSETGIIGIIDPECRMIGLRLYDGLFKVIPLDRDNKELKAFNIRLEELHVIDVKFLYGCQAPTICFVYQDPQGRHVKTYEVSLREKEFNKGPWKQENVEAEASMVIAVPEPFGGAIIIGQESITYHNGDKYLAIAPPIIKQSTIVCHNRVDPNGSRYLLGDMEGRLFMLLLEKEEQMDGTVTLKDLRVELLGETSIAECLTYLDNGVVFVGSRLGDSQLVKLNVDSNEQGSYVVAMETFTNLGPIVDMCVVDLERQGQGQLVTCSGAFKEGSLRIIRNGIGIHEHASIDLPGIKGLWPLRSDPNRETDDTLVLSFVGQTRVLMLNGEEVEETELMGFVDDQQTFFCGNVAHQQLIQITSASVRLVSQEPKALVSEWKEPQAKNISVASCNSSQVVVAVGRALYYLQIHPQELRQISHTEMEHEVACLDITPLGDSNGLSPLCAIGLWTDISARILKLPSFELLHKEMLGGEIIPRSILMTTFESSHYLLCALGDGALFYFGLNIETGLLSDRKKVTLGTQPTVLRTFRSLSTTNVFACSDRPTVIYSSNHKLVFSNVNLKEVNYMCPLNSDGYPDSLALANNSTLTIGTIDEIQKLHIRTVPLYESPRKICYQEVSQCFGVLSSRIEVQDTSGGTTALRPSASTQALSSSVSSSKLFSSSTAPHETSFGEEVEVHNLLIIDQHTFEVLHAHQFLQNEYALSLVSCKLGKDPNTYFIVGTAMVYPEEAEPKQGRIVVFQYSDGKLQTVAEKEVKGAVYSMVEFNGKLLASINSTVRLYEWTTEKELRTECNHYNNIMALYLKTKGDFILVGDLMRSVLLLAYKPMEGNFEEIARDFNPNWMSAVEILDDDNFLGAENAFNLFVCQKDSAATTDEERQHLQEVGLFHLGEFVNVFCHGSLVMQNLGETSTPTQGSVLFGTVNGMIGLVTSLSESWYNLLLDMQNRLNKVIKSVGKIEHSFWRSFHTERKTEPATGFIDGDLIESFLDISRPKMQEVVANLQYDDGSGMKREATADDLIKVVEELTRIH
T1 sequence (P15170 whole entry): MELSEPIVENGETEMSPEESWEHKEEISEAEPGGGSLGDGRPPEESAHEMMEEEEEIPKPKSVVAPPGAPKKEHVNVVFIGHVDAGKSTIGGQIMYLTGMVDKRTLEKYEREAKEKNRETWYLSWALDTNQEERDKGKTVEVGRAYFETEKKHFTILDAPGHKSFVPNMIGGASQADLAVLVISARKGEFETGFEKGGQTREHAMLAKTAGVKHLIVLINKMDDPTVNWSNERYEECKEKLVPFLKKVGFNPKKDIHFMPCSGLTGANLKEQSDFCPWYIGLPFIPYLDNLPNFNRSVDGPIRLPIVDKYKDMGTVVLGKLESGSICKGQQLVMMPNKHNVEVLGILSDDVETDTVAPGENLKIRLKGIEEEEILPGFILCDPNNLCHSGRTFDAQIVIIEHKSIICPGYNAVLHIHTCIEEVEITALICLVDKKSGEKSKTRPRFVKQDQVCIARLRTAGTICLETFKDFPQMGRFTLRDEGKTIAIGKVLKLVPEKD
T1 sequence (Q96SW2 whole entry): as the sequence (Q96SW2 whole entry) above
T1 sequence (Q16531 whole entry partner): as the sequence (Q16531 whole entry partner) above
T4 sequence (P48729 whole entry): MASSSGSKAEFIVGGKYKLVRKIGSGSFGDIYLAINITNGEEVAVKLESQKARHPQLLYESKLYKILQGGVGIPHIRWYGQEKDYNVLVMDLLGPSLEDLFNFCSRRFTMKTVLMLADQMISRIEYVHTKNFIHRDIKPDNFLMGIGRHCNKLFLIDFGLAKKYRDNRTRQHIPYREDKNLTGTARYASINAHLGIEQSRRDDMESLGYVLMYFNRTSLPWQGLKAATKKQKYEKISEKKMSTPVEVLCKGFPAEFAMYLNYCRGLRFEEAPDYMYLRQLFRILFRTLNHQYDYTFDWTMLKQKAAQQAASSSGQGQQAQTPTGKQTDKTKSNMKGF
T4 sequence (Q96SW2 whole entry): as the sequence (Q96SW2 whole entry) above
T4 sequence (Q16531 whole entry partner): as the sequence (Q16531 whole entry partner) above
T6 sequence (Q13422 whole entry): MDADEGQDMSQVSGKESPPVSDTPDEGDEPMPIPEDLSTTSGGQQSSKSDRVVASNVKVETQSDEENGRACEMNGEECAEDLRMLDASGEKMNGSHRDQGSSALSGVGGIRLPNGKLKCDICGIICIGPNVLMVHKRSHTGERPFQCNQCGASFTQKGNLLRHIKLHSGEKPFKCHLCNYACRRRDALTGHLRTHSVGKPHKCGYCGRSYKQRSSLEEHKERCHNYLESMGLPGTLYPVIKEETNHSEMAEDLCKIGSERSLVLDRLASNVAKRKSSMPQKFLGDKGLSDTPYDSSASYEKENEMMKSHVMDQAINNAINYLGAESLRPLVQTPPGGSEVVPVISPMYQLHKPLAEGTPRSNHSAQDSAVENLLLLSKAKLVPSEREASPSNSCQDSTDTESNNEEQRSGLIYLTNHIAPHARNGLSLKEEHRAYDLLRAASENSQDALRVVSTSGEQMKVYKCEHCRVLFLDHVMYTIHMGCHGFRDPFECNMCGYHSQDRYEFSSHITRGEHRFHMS
T6 sequence (Q96SW2 whole entry): as the sequence (Q96SW2 whole entry) above
T6 sequence (Q16531 whole entry partner): as the sequence (Q16531 whole entry partner) above
T5 sequence (P30291 whole entry): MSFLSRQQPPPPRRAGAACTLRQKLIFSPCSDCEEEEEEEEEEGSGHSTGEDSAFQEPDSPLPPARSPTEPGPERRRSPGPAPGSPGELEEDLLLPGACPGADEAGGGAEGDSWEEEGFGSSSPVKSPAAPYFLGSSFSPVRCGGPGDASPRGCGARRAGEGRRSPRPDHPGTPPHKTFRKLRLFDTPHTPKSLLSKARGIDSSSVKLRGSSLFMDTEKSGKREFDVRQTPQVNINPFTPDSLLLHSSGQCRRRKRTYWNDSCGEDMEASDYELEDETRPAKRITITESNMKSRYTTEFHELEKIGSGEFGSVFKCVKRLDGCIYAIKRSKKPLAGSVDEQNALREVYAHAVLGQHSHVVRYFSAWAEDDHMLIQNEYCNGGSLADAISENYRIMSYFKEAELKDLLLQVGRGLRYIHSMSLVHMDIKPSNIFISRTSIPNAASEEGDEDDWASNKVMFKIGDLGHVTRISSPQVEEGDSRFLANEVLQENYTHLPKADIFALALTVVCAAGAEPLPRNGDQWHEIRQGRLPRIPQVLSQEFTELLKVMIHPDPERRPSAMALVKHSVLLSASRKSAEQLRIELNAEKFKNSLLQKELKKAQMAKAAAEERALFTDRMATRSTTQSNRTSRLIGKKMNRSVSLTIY
T5 sequence (Q96SW2 whole entry): as the sequence (Q96SW2 whole entry) above
T5 sequence (Q16531 whole entry partner): as the sequence (Q16531 whole entry partner) above

| Structure (SMILES) | GSPT1 substrate protein remaining % [1] | IKZF2 substrate protein remaining % [2] | IKZF3 substrate protein remaining % [3] | CK1α substrate protein remaining % [4] | WEE1 substrate protein remaining % [5] | IKZF1 substrate protein remaining % [6] |
| --- | --- | --- | --- | --- | --- | --- |
| O=C1CCN(N2C(=O)c3ccc(CN4CCN(c5cccc(Cl)c5Cl)CC4)cc3C2=O)C(=O)N1 [GT-04854, 5-((4-(2,3-dichlorophenyl)piperazin-1-yl)methyl)-2-(2,4-dioxotetrahydropyrimidin-1(2H)-yl)isoindoline-1,3-dione] | A ("A" is defined as 0% ≤ substrate protein remaining % ≤ 80%) | A ("A" is defined as 0% ≤ substrate protein remaining % ≤ 80%) | B ("B" is defined as 80%< substrate protein remaining %≤ 100%) | B ("B" is defined as 80%< substrate protein remaining %≤ 100%) | A ("A" is defined as 0% ≤ substrate protein remaining % ≤ 80%) | A ("A" is defined as 0% ≤ substrate protein remaining % ≤ 80%) |
| O=C1CCN(N2Cc3cc(CN4CCC(c5noc6cc(F)ccc56)CC4)ccc3C2=O)C(=O)N1 [GT-04864, 1-(5-((4-(6-fluorobenzo[d]isoxazol-3-yl)piperidin-1-yl)methyl)-1-oxoisoindolin-2-yl)dihydropyrimidine-2,4(1H,3H)-dione] | A ("A" is defined as 0% ≤ substrate protein remaining % ≤ 80%) | B ("B" is defined as 80%< substrate protein remaining %≤ 100%) | B ("B" is defined as 80%< substrate protein remaining %≤ 100%) | B ("B" is defined as 80%< substrate protein remaining %≤ 100%) | B ("B" is defined as 80%< substrate protein remaining %≤ 100%) | A ("A" is defined as 0% ≤ substrate protein remaining % ≤ 80%) |
| O=C1CCN(N2Cc3cc(CN4CCN(c5nsc6ccccc56)CC4)ccc3C2=O)C(=O)N1 [GT-04865, 1-(5-((4-(benzo[d]isothiazol-3-yl)piperazin-1-yl)methyl)-1-oxoisoindolin-2-yl)dihydropyrimidine-2,4(1H,3H)-dione] | A ("A" is defined as 0% ≤ substrate protein remaining % ≤ 80%) | B ("B" is defined as 80%< substrate protein remaining %≤ 100%) | B ("B" is defined as 80%< substrate protein remaining %≤ 100%) | B ("B" is defined as 80%< substrate protein remaining %≤ 100%) | B ("B" is defined as 80%< substrate protein remaining %≤ 100%) | A ("A" is defined as 0% ≤ substrate protein remaining % ≤ 80%) |
| O=C1CCN(N2Cc3cc(CN4CCN(c5ncccc5C(F)(F)F)CC4)ccc3C2=O)C(=O)N1 [GT-05174, 1-(1-oxo-5-((4-(3-(trifluoromethyl)pyridin-2-yl)piperazin-1-yl)methyl)isoindolin-2-yl)dihydropyrimidine-2,4(1H,3H)-dione] |  |  | B ("B" is defined as 80%< substrate protein remaining %≤ 100%) | B ("B" is defined as 80%< substrate protein remaining %≤ 100%) |  | B ("B" is defined as 80%< substrate protein remaining %≤ 100%) |
| O=C1CCN(N2Cc3cc(CN4CCN(c5cccc(C(F)(F)F)n5)CC4)ccc3C2=O)C(=O)N1 [GT-05175, 1-(1-oxo-5-((4-(6-(trifluoromethyl)pyridin-2-yl)piperazin-1-yl)methyl)isoindolin-2-yl)dihydropyrimidine-2,4(1H,3H)-dione] | A ("A" is defined as 0% ≤ substrate protein remaining % ≤ 80%) | B ("B" is defined as 80%< substrate protein remaining %≤ 100%) |  |  | A ("A" is defined as 0% ≤ substrate protein remaining % ≤ 80%) | B ("B" is defined as 80%< substrate protein remaining %≤ 100%) |
| O=C1CCN(N2Cc3cc(CN4CCN(c5ccc(C(F)(F)F)cn5)CC4)ccc3C2=O)C(=O)N1 [GT-05176, 1-(1-oxo-5-((4-(5-(trifluoromethyl)pyridin-2-yl)piperazin-1-yl)methyl)isoindolin-2-yl)dihydropyrimidine-2,4(1H,3H)-dione] |  | B ("B" is defined as 80%< substrate protein remaining %≤ 100%) |  | B ("B" is defined as 80%< substrate protein remaining %≤ 100%) |  | B ("B" is defined as 80%< substrate protein remaining %≤ 100%) |
| O=C1CCN(N2C(=O)c3ccc(CN4CCN(c5ccccn5)CC4)cc3C2=O)C(=O)N1 [GT-05351, 2-(2,4-dioxotetrahydropyrimidin-1(2H)-yl)-5-((4-(pyridin-2-yl)piperazin-1-yl)methyl)isoindoline-1,3-dione] |  | A ("A" is defined as 0% ≤ substrate protein remaining % ≤ 80%) | B ("B" is defined as 80%< substrate protein remaining %≤ 100%) | B ("B" is defined as 80%< substrate protein remaining %≤ 100%) |  | B ("B" is defined as 80%< substrate protein remaining %≤ 100%) |
| O=C1CCN(N2C(=O)c3ccc(CN4CCN(c5cccc(Cl)n5)CC4)cc3C2=O)C(=O)N1 [GT-05353, 5-((4-(6-chloropyridin-2-yl)piperazin-1-yl)methyl)-2-(2,4-dioxotetrahydropyrimidin-1(2H)-yl)isoindoline-1,3-dione] | A ("A" is defined as 0% ≤ substrate protein remaining % ≤ 80%) | B ("B" is defined as 80%< substrate protein remaining %≤ 100%) | B ("B" is defined as 80%< substrate protein remaining %≤ 100%) | B ("B" is defined as 80%< substrate protein remaining %≤ 100%) |  | B ("B" is defined as 80%< substrate protein remaining %≤ 100%) |
| O=C1CCN(N2C(=O)c3ccc(CN4CCN(c5cc(Cl)ccn5)CC4)cc3C2=O)C(=O)N1 [GT-05354, 5-((4-(4-chloropyridin-2-yl)piperazin-1-yl)methyl)-2-(2,4-dioxotetrahydropyrimidin-1(2H)-yl)isoindoline-1,3-dione] | A ("A" is defined as 0% ≤ substrate protein remaining % ≤ 80%) |  |  | B ("B" is defined as 80%< substrate protein remaining %≤ 100%) |  | B ("B" is defined as 80%< substrate protein remaining %≤ 100%) |
| O=C1CCN(N2C(=O)c3ccc(CN4CCN(c5ncccc5F)CC4)cc3C2=O)C(=O)N1 [GT-05355, 2-(2,4-dioxotetrahydropyrimidin-1(2H)-yl)-5-((4-(3-fluoropyridin-2-yl)piperazin-1-yl)methyl)isoindoline-1,3-dione] | A ("A" is defined as 0% ≤ substrate protein remaining % ≤ 80%) |  | B ("B" is defined as 80%< substrate protein remaining %≤ 100%) | B ("B" is defined as 80%< substrate protein remaining %≤ 100%) | B ("B" is defined as 80%< substrate protein remaining %≤ 100%) | B ("B" is defined as 80%< substrate protein remaining %≤ 100%) |
| O=C1CCN(N2Cc3cc(CN4CCN(c5ncc(Cl)cc5Cl)CC4)ccc3C2=O)C(=O)N1 [GT-05356, 1-(5-((4-(3,5-dichloropyridin-2-yl)piperazin-1-yl)methyl)-1-oxoisoindolin-2-yl)dihydropyrimidine-2,4(1H,3H)-dione] |  |  | B ("B" is defined as 80%< substrate protein remaining %≤ 100%) | B ("B" is defined as 80%< substrate protein remaining %≤ 100%) |  | B ("B" is defined as 80%< substrate protein remaining %≤ 100%) |
| O=C1CCN(N2Cc3cc(CN4CCN(c5nccc(F)c5F)CC4)ccc3C2=O)C(=O)N1 [GT-05357, 1-(5-((4-(3,4-difluoropyridin-2-yl)piperazin-1-yl)methyl)-1-oxoisoindolin-2-yl)dihydropyrimidine-2,4(1H,3H)-dione] |  | B ("B" is defined as 80%< substrate protein remaining %≤ 100%) | B ("B" is defined as 80%< substrate protein remaining %≤ 100%) | B ("B" is defined as 80%< substrate protein remaining %≤ 100%) |  | B ("B" is defined as 80%< substrate protein remaining %≤ 100%) |
